This is an account of results in ChEMBL document CHEMBL1201862, “PubChem BioAssay data set” (2004).

Assay [1] deals with Multidrug resistance protein CDR2 (Candida albicans (strain SC5314 / ATCC MYA-2876) (Yeast), UniProt P78595). Put plainly: CaCDR2 efflux pump inhibitors in yeast, dose response, S. cerevisiae AD1-8u, singleplex, Cherry Pick1 hits (AID 588604). Type of assay: functional.
The target in assay [2] is Induced myeloid leukemia cell differentiation protein Mcl-1 (Homo sapiens, UniProt Q07820). Type of assay: functional.
Induced myeloid leukemia cell differentiation protein Mcl-1, sequence (Q07820 whole entry): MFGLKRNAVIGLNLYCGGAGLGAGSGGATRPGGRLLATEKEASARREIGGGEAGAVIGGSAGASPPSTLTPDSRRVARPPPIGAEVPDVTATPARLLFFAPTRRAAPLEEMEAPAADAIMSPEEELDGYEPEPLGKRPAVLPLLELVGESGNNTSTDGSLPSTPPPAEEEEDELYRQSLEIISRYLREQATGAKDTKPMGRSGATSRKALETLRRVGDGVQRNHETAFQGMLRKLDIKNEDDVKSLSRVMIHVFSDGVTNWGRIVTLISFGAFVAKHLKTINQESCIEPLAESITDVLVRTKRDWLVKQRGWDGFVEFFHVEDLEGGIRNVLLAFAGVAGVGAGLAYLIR
Another assay addresses T1, Streptokinase A (Streptococcus pyogenes serotype M1, UniProt P10520).
T1 sequence (P10520 whole entry): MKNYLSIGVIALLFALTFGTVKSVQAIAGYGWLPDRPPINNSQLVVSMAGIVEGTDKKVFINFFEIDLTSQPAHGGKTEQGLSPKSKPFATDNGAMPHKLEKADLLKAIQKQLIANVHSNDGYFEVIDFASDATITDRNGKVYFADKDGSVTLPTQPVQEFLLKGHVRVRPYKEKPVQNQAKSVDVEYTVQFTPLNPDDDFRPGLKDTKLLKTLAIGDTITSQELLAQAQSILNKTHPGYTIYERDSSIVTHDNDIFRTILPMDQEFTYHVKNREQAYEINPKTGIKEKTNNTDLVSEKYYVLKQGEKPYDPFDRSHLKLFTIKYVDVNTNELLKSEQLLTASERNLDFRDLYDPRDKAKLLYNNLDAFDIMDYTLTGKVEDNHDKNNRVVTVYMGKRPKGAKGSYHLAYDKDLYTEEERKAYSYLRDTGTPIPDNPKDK
In words: S. pyogenes streptokinase expression inhibitors, potency, dose response, plasminogen activation absorbance, OD405 (AID 1914).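 Also: secreted streptokinase activity via plasminogen activation per viability signal from cell pellet.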 The class given is functional, Streptococcus pyogenes M1 GAS.

Assay [3] concerns the target T2, Heat shock factor protein 1 (Mus musculus, UniProt P38532).
T2 sequence (P38532 whole entry): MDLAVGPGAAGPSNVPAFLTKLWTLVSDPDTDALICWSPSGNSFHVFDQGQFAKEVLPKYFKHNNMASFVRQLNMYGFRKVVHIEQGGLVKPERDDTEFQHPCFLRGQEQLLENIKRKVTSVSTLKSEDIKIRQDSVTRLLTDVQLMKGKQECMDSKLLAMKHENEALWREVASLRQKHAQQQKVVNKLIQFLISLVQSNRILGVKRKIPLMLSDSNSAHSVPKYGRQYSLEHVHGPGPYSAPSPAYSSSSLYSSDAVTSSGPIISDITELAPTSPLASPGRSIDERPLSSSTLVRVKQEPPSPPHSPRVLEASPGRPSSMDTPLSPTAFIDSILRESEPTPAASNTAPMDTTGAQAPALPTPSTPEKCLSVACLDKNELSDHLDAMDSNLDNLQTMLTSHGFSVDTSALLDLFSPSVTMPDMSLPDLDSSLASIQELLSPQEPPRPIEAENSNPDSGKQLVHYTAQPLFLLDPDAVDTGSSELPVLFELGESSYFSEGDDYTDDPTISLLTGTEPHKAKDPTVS
Put plainly: inhibition of MG132-induced HSE-luciferase signal, confirmation, cell-based, NIH3T3, luminescence, dose retest (AID 2382).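 Also: NIH3T3 fibroblasts with HSF1-driven luciferase reporter stressed by proteasome inhibitor MG132; luminescence from HSF1-driven luciferase expression after 8 hours of MG132 stress.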 The class given is functional.

In a further assay the target is Beta-galactosidase (Escherichia coli, UniProt Q8VNN2). In words: beta-galactosidase enzyme inhibitors and activators, dose response, artefact control for CCR6 antagonist project, biochemical, E. coli enzyme, set 3 (AID 504712). Type of assay: functional.
Beta-galactosidase, sequence (Q8VNN2 whole entry): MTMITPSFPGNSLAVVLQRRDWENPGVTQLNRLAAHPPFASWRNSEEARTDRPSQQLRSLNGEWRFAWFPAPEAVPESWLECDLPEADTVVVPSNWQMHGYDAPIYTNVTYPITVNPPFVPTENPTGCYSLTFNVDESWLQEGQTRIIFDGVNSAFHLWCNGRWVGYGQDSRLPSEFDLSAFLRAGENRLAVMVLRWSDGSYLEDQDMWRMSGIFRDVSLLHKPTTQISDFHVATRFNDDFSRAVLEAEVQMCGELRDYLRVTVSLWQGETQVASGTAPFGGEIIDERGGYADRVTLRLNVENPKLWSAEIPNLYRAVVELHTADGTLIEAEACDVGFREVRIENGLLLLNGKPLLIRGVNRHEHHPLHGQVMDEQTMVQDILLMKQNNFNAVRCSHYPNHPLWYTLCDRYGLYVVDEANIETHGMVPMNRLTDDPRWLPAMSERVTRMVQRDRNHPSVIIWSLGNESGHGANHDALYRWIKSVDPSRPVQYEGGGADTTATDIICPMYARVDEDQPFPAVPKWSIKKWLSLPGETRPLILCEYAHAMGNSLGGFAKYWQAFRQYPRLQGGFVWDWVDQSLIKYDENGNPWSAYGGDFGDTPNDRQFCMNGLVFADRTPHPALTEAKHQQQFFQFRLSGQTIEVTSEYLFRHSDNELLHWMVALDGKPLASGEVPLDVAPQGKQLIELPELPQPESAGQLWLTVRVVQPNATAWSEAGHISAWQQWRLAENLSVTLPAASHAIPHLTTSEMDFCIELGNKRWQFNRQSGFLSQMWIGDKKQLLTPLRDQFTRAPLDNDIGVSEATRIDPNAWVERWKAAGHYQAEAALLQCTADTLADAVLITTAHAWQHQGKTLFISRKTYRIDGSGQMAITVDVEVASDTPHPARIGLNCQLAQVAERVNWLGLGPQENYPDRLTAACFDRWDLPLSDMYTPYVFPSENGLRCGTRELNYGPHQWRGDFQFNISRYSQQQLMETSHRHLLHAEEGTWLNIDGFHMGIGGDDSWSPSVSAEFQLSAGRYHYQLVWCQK
The target in the next assay is T3, Protein RecA (Mycobacterium tuberculosis, UniProt P9WHJ3).
T3 sequence (P9WHJ3 whole entry): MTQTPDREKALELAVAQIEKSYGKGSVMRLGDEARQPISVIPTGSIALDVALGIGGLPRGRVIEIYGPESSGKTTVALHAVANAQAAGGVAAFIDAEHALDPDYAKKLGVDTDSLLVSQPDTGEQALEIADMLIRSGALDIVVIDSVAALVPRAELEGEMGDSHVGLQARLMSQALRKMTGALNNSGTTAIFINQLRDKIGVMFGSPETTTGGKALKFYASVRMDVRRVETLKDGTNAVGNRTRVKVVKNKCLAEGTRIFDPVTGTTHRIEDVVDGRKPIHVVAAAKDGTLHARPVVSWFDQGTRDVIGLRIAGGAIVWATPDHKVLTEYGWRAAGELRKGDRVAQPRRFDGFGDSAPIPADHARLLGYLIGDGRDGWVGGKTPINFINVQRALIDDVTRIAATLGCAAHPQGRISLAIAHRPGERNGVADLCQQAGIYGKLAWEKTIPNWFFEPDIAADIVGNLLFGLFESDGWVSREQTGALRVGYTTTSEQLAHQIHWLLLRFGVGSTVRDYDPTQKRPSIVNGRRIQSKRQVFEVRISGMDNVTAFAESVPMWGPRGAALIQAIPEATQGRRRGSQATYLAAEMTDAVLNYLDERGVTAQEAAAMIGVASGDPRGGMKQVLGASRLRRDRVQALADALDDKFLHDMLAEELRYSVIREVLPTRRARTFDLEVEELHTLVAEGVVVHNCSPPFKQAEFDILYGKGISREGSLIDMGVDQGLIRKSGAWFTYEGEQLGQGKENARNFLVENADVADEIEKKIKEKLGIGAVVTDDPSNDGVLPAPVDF
In words: Fluorescence Cell-Free Homogeneous Dose Retest to Identify Inhibitors of RecA-Intein Splicing Activity. [Related pubchem assays (depositor defined):AID2097, AID2223, AID489010, AID492950]. Type of assay: functional.

In a further assay the target is Genome polyprotein (dengue virus type 2, UniProt P29990). In words: Dengue-2 NS5 methyltransferase inhibitors, primary screen, biochemical, confirmation dose response (AID 588689). The class given is functional.
Genome polyprotein, sequence (P29990 2492-3391 limits assumed): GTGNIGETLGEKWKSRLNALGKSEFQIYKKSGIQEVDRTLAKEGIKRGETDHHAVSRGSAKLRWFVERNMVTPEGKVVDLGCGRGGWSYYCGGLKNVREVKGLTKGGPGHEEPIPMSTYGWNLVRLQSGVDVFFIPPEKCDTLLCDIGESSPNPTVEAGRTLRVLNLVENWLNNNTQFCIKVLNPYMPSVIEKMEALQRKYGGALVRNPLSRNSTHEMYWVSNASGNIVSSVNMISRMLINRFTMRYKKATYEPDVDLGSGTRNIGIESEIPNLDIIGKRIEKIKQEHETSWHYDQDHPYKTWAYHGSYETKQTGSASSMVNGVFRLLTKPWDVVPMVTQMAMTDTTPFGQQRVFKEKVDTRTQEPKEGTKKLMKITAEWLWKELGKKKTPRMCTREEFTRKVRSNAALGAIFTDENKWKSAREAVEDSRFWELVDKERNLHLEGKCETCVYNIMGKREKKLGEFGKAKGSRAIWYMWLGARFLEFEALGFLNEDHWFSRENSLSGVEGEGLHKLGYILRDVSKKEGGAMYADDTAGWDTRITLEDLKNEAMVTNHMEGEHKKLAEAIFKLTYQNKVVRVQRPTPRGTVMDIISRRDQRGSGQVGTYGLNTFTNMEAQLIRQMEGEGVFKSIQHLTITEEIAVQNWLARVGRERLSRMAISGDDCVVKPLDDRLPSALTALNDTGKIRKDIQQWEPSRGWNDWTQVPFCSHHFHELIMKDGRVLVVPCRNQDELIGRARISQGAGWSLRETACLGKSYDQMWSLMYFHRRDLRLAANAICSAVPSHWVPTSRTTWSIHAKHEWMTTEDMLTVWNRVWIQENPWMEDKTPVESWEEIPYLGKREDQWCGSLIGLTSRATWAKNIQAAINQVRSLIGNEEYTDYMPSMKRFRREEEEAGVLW
Assay [4] deals with T4, Replicative DNA helicase DnaB (Mycobacterium tuberculosis, UniProt P9WMR3).
T4 sequence (P9WMR3 whole entry): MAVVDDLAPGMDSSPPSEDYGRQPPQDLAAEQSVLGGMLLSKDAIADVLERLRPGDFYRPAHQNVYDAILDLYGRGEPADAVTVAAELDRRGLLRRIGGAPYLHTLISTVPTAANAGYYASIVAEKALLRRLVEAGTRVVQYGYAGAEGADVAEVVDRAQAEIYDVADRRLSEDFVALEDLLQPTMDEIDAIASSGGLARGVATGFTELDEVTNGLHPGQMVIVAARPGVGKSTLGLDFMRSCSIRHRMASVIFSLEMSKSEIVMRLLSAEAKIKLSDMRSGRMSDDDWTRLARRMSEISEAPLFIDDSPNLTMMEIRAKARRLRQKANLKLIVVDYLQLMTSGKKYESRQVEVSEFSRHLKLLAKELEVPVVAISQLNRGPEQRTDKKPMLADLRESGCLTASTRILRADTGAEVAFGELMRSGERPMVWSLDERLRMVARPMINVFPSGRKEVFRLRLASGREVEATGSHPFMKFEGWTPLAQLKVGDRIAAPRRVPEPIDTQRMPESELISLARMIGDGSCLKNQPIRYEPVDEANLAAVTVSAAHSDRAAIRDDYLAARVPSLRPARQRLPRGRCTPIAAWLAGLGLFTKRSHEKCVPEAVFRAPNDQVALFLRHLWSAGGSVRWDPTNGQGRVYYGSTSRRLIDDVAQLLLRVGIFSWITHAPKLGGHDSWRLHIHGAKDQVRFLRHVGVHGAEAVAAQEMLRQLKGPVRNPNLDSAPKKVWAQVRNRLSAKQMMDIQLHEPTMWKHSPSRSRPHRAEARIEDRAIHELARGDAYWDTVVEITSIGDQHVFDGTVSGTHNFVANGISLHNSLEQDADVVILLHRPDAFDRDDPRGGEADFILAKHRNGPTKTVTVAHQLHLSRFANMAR
Put plainly: DnaB intein splicing inhibitors, dose response, biochemical, cell-free fluorescence (AID 449749). Type of assay: functional.

The target of assay [5] is T5, Mitochondrial peptide methionine sulfoxide reductase (Bos taurus, UniProt P54149).
T5 sequence (P54149 whole entry): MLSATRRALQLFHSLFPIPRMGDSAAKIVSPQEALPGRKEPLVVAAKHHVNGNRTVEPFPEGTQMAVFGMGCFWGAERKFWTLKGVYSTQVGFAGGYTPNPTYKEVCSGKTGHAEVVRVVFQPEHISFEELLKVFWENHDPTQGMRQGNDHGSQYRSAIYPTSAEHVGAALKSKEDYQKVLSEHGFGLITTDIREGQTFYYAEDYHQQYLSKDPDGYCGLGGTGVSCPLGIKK
In words: Absorbance-based biochemical high throughput dose response assay for activators of Methionine sulfoxide reductase A (MsrA). The class given is functional.

Assay [6] deals with C-C chemokine receptor type 6 (Homo sapiens, UniProt P51684). In words: CCR6 receptor antagonists, dose response, cell-based, luminescent beta-arrestin readout (AID 504728). The class given is functional.
C-C chemokine receptor type 6, sequence (P51684 whole entry): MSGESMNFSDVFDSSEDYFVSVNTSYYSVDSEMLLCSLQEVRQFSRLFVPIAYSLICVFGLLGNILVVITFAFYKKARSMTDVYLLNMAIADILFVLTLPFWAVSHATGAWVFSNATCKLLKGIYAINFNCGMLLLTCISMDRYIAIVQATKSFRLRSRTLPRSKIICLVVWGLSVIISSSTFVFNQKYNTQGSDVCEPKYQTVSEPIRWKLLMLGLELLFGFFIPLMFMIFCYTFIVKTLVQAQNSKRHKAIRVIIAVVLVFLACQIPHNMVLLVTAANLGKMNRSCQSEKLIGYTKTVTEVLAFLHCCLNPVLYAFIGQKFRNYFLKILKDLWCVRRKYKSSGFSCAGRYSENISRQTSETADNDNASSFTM

The source made the active and inactive calls. A value given as a limit tells only on which side of the number the result lay.

Multidrug resistance protein CDR2, sequence (P78595 whole entry): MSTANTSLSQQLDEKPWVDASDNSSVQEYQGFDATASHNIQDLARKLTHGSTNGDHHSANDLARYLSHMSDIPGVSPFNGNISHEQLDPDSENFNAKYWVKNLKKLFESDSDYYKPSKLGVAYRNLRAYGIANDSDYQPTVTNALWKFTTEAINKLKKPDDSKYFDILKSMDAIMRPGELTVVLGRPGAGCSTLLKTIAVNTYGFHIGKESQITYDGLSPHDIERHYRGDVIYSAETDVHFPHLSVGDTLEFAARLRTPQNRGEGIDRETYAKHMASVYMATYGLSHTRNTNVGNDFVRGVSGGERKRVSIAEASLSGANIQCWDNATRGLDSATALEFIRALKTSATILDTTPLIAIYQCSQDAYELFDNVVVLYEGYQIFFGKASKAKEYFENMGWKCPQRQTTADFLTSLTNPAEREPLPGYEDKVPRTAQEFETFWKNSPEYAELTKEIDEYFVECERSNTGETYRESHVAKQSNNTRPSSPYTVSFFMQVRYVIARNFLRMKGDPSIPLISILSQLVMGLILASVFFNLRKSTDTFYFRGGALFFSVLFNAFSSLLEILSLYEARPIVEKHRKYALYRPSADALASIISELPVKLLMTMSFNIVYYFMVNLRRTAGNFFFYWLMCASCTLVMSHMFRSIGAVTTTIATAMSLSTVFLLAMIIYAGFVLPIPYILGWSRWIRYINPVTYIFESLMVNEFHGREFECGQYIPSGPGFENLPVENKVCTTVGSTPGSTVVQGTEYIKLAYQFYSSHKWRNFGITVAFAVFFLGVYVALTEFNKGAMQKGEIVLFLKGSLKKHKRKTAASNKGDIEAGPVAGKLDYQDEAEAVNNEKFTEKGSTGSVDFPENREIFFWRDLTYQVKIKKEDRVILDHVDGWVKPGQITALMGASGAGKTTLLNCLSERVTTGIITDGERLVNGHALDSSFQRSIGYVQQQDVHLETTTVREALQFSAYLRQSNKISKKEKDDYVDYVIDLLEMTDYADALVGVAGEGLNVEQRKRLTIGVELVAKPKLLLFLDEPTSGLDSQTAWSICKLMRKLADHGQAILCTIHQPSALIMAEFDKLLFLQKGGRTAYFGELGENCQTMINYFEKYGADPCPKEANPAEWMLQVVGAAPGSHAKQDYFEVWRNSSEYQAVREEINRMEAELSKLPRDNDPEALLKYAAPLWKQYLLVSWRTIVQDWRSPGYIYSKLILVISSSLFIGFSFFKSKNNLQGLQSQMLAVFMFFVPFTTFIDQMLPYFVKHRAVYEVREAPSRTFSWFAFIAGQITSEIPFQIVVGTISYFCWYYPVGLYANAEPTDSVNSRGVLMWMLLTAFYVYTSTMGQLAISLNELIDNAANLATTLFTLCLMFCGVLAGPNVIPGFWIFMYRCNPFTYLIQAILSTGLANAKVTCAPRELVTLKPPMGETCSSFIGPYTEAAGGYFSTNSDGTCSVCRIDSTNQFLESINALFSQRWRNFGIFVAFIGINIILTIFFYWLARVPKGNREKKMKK

Regarding `O=C1C(Cl)=C(Nc2ccc3cn[nH]c3c2)C(=O)c2ccccc21`, the EC50 in assay [1] was 40.6 µM (active); at Streptokinase A, 6.22 µM (active); in assay [3] it was 5.42 µM (active); on Protein RecA, 0.955 µM (active); in assay [5], > 104 µM (inactive). Moreover, the IC50 in [2] was 6.25 µM (active); at Beta-galactosidase, > 66.6 µM (inactive); on Genome polyprotein it was 18.7 µM (active); in assay [6], > 66.6 µM (inactive). Also, in assay [4], the AC50 is 1.65 µM (active).
